Experimental findings from PubChem BioAssay AID1963830 (Molecular Pharmacology Branch, DTP, NCI, 2024) are described below.

Broadly, the viability, T/C is the result in the treated group divided by that in the control group, in per cent. A word on the IC50: it is the point on the concentration scale where inhibition reaches its midpoint.

The subject of the experiment is 922993-354-T-J3-PDC complex spheroid viability. Briefly: Anticancer human tumor 922993-354-T-J3-PDC patient-derived endometrial carcinoma cell line growth inhibition [POLQ]. To be noted: for viability, T/C: stronger effect = lower value. The protocol: Multicellular complex tumor spheroid response to Polymerase (POL) inhibitors (novobiocin, ART-558, RP6685) in combination with a variety of drugs and investigational agents in selected tumor cell lines
The POL inhibitors (novobiocin, ART-558, and RP6685) were evaluated both individually and in combination with standard of care and investigational anticancer small molecules within a complex spheroid model of solid tumors. . Complex spheroids include a stromal component modeled by human endothelial cells (HUVEC) and fibroblasts modeled by human mesenchymal stem cells (MSCs). The concentration ranges selected for each drug and investigational agent were based upon clinically achievable concentrations if the clinical Cmax of the agent was known.
Compounds. The drugs and investigational agents: novobiocin (NSC847541), ART-558 (NSC835418), RP-6685 (NSC848927), peposertib (NSC802822), ceralasertib (NSC780249), elimusertib (NSC800525), camonsertib (NSC841442), AZD-1390 (NSC803789), olaparib (NSC753686), talazoparib (NSC767125), rucaparib (NSC756644), sotorasib (NSC818433), MRTX-1133 (NSC836407), SN-38 (NSC673596), topotecan (NSC609699), epotoside (NSC141540), doxorubicin (NSC123127), gemcitabine (NSC613327), 5-fluorouracil (NSC19893), paclitaxel (NSC125973), vemurafenib (NSC761431), MSA-2 (NSC828583), SN-011 (NSC837082), adavosertib (NSC754352), prexasertib (NSC758257), carboplatin (NSC241240) and oxaliplatin (NSC266046), were obtained from the National Cancer Institute (NCI) Developmental Therapeutics Program Chemical Repository (21). The FDA-approved anticancer drug set is available from the Developmental Therapeutics Program at https://dtp.cancer.gov/organization/dscb/obtaining/. […] The stock solutions were prepared in dimethyl sulfoxide (DMSO, Sigma-Aldrich, St. Louis, MO, cat. D2650), except for the platinum compounds which were prepared in saline (Quality Biological, Gaithersburg, MD, cat. 114-055-101), at 800-fold the tested concentration and stored at -70 degrees C prior to their use. All drugs and investigational agents were tested over a range starting from a high concentration at or near the clinical Cmax and decreasing in half-log increments. If the clinical Cmax for an agent had not been determined, the highest concentration tested was 10 microM, except for SN-38, which was tested at a high concentration of 1 microM.
Cell Culture. All cells were maintained in an incubator at 37 degrees C and 5% CO2 with 95% humidity. The PDC lines were cultured according to standard operating procedures established by the NCI PDMR (https://pdmr.cancer.gov). Table 3 of the manuscript, lists the cell lines along with the number of the three cell types plated to form the mct-spheroids and media for tumor cell growth. After thawing, all PDC lines, except 997537-175-T-J1-PDC and 415267-285-R-J2-PDC, were cultured in Matrigel-coated flasks prepared with a working solution of 1X Ham's F-12 nutrient mix, without supplementation (Thermo Fisher Scientific, cat. 11765054), 100 U/mL penicillin-streptomycin (Thermo Fisher Scientific, cat. 15140122), and 2.5% Matrigel (Corning Inc., Corning, NY, cat. 354248) for the first three passages. The two PDC lines 997537-175-T-J1-PDC and 415267-285-R-J2-PDC were cultured on uncoated flasks. The 857933-349-R-J2-PDC line was cultured in 6C/Colon 1B media containing advanced DMEM/F-12 (Thermo Fisher Scientific, cat. 12634028), 10 mM HEPES (Thermo Fisher Scientific, cat. 15630080), 1X GlutaMAX supplement (Thermo Fisher Scientific, cat. 35050061), 0.1 mg/mL primocin (InvivoGen, San Diego, CA, cat. ant-pm-2), 10% defined fetal bovine serum, heat inactivated (HyClone Laboratories Inc., Logan, UT, cat. SH30070.03HI), 50% L-WRN conditioned media (ATCC, cat. CRL-3276), 1.25 mM N-Acetyl-L-cysteine (Sigma-Aldrich, cat. A9165), 10 mM nicotinamide (Sigma-Aldrich, cat. N0636), 1X B-27 supplement (Thermo Fisher Scientific, cat. 17504044), 1X N-2 supplement (Thermo Fisher Scientific, cat. […]

[1] abbreviates: compound alone, run of 11/06/2023.

Where “and” joins values, the source holds several entries; their conditions need not be identical. Equal values may be shown once.
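Also: spheroids exposed to the agents for one week.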
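For viability, T/C in this document: 100% = DMSO vehicle control wells.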

On to `COc1ccc([C@@H](O)c2cc(-c3ncnc4cc(N5CCOCC5)ccc34)c(F)cc2Cl)nn1`, for which the viability, T/C was 95.5% and 103% and 107% (compound 0.0316 µM); 84.6% and 101% and 89.6% (compound 0.1 µM); 99.2% and 98.3% and 96.1% (compound 0.316 µM); 92.9% and 97.3% and 99.2% (compound 1 µM); 78.1% and 90.2% and 83.4% (compound 3.16 µM); 57% and 75% and 62.1% (compound 10 µM). Also, the IC50 (curve of compound) is above 10 µM.
In the case of `COc1cccc(OCCCN)c1-c1cc(Nc2cnc(C#N)cn2)n[nH]1`, the viability, T/C is 95.3% and 103% (2×) (compound 0.00316 µM); 89.9% and 104% and 99.4% (compound 0.01 µM); 72% and 101% and 96.2% (compound 0.0316 µM); 80.4% and 102% (2×) (compound 0.1 µM); 16.6% and 92.8% and 90.4% (compound 0.316 µM); 12.3% and 21.8% and 21.6% (compound 1 µM). For the same compound, the IC50 (curve of compound) was 0.173 µM and 0.633 µM and 0.623 µM.
`COc1cccc2c1C(=O)c1c(O)c3c(c(O)c1C2=O)CC(O)(C(=O)CO)CC3OC1CC(N)C(O)C(C)O1` (centres undefined): the viability, T/C (compound 0.0316 µM) was 95.6% and 102% and 94.8%; the viability, T/C (compound 0.1 µM) is 84.5% and 106% and 91.1%; the viability, T/C (compound 0.316 µM) was 79.2% and 99.9% and 86.9%; the viability, T/C (compound 1 µM) is 49.4% and 91.8% and 61.5%; the viability, T/C (compound 3.16 µM) was 30% and 74.5% and 31.3%; the viability, T/C (compound 10 µM) was 12.6% and 30.7% and 10.1%. The IC50 (curve of compound) is 1.12 µM and 6 µM and 1.58 µM.
As to `Cc1cccc(N(C)C(=O)C2C(O)CCN2c2nc(C)cc(C(F)(F)F)c2C#N)c1` (centres undefined), the viability, T/C is, setting by setting: (compound 0.0316 µM) 102% [middle of 13 runs]; (compound 0.1 µM) 101% [middle of 13 runs]; (compound 0.316 µM) 103% [middle of 13 runs]; (compound 1 µM) 103% [middle of 13 runs]; (compound 3.16 µM) 103% [middle of 13 runs]; (compound 10 µM) 105% [middle of 13 runs]. Moreover, the IC50 was above 10 µM (compound alone, run of 10/31/2023) and above 10 µM under setting [1].
For `Cn1ncnc1[C@H]1c2n[nH]c(=O)c3cc(F)cc(c23)N[C@@H]1c1ccc(F)cc1`, the viability, T/C is, setting by setting: (compound 0.000316 µM) 93.8% and 97.3% and 106%; (compound 0.001 µM) 88.3% and 96.2% and 93.8%; (compound 0.00316 µM) 94% and 101% and 93.7%; (compound 0.01 µM) 103% and 100% and 109%; (compound 0.0316 µM) 94.3% and 98.1% and 96.2%; (compound 0.1 µM) 79.3% and 83.4% and 61%. Also, the IC50 (curve of compound) was above 0.1 µM.
For the compound `Nc1ccc(C#CCN(C(=O)Cc2ncc(C(F)(F)F)cc2C(F)(F)F)c2ccc(F)cc2)nn1`, the viability, T/C reads like this: (compound 0.0316 µM) 103% [middle of 13 runs]; (compound 0.1 µM) 102% [middle of 12 runs]; (compound 0.316 µM) 102% [middle of 13 runs]; (compound 1 µM) 101% [middle of 13 runs]; (compound 3.16 µM) 101% [middle of 13 runs]; (compound 10 µM) 98% [middle of 13 runs]. The IC50 under setting [1] is above 10 µM.
As for `Nc1ccn(C2OC(CO)C(O)C2(F)F)c(=O)n1` (centres undefined), the viability, T/C was 13.5% and 24% and 10.2% (compound 0.0316 µM); 9.54% and 19.8% and 10.8% (compound 0.1 µM); 11.1% and 19.8% and 8.64% (compound 0.316 µM); 12.2% and 17.1% and 9.88% (compound 1 µM); 9.68% and 23.8% and 9.1% (compound 3.16 µM); 8.4% and 22.9% and 7.7% (compound 10 µM). Further, the IC50 (curve of compound) was below 0.0316 µM.
On to `O=C(c1cc(Cc2n[nH]c(=O)c3ccccc23)ccc1F)N1CCN(C(=O)C2CC2)CC1`, for which the viability, T/C reads like this: (compound 0.0316 µM) 107% and 111% and 103%; (compound 0.1 µM) 100% and 97.4% and 101%; (compound 0.316 µM) 95.3% and 93.3% and 102%; (compound 1 µM) 106% and 94% and 101%; (compound 3.16 µM) 92% and 94% and 104%; (compound 10 µM) 96.9% and 99.4% and 94.8%. For the same compound, under “curve of compound”, the IC50 is above 10 µM.
Consider `O=c1[nH]cc(F)c(=O)[nH]1`, for which the viability, T/C (compound 0.0316 µM) was 92.3% and 104% and 112%; the viability, T/C (compound 0.1 µM) is 105% and 101% and 99.1%; the viability, T/C (compound 0.316 µM) is 95% and 101% and 95.6%; the viability, T/C (compound 1 µM) is 101% and 105% and 99.3%; the viability, T/C (compound 3.16 µM) was 30.5% and 79.5% and 27.9%; the viability, T/C (compound 10 µM) is 14.8% and 24.6% and 17.6%. Further, the half-maximal inhibitory concentration (IC50) (curve of compound) was 2.27 µM and 5.89 µM and 2.21 µM.
